“Also recorded” adds a separate entry of the source. Like-named read-outs stand apart in the source and are kept apart here. Bounds are passed on as bounds.

For assay [1], the system named is SARS-CoV-2. The note with it: lung epithelial cells; ref 41 (Nguyen et al.); cited from earlier work.
In assay [2] the test system is VSV-pseudotypes bearing SARS-CoV-1 S protein. Kind of assay: microbe, parasite or virus in culture. It counts as cell-based. The conditions noted are these: for inhibitory effect on SARS-CoV-1 virus entry (in words): 1-100 μg/mL.
In assay [3] the test system is VSV-pseudotypes bearing SARS-CoV-2 S protein. Kind of assay: microbe, parasite or virus in culture. The conditions noted are these: for inhibitory effect on SARS-CoV-2 entry (in words): 1-100 μg/mL; for IC50: Severe acute respiratory syndrome coronavirus 2, HEK-293T, read-out: IC50, SARS-CoV-2 entry. It counts as cell-based.
The test system of assay [4] is influenza virus A/Puerto Rico/8/34. The assay is classed as cell-based.
For assay [5] the test system is unchanged. It counts as cell-based. The source holds these as a separate data set.
The test system of assay [6] is SARS-CoV-2. The conditions noted are these: ref 43 (van Breemen et al.); cited from earlier work.
For assay [7], the system named is influenza virus. The conditions noted are these: cited from earlier work.

As to `C=C(C)[C@@H]1CCC(CO)=C[C@H]1c1c(O)cc(CCCCC)cc1O` [7-OH-CBD], in assay [1], the “inhibition of SARS-CoV-2 replication (in words)” value is listed as “inhibit SARS-CoV-2 replication”.

For `C=C(C)[C@@H]1CCC(C)=C[C@H]1c1c(O)cc(CCCCC)cc1O` [CBD, cannabidiol], the “inhibition of SARS-CoV-2 replication (in words)” value in assay [1] is recorded as “inhibit SARS-CoV-2 replication”.

`C=C(C)C1CCC(C)=CC1c1c(OC(=O)C(C)c2ccc(CC(C)C)cc2)cc(CCCCC)cc1OC(=O)C(C)c1ccc(CC(C)C)cc1` (centres unmarked) [CBD-I]: the “inhibitory effect on SARS-CoV-1 virus entry (in words)” value in assay [2] is reported as “did not find any significant inhibitory effect”. Moreover, in assay [3], the “inhibitory effect on SARS-CoV-2 entry (in words)” value is “significantly inhibited; also recorded: significantly reduced” and the 50% inhibitory concentration (IC50) is under 1 µg/mL.

Consider `C=C(C)C1CCC(C)=CC1c1c(OC(=O)C(C)c2cccc(C(=O)c3ccccc3)c2)cc(CCCCC)cc1OC(=O)C(C)c1cccc(C(=O)c2ccccc2)c1` (centres unmarked) [CBD-K], for which the “inhibitory effect on SARS-CoV-1 virus entry (in words)” value in assay [2] was “did not find any significant inhibitory effect”. In addition, in assay [3], the “inhibitory effect on SARS-CoV-2 entry (in words)” value is reported as “non-significant decrease in luciferase activity; also recorded: did not significantly affect”.

Regarding `C=C(C)C1CCC(C)=CC1c1c(OC(=O)C(C)c2ccc3cc(OC)ccc3c2)cc(CCCCC)cc1OC(=O)C(C)c1ccc2cc(OC)ccc2c1` (centres unmarked) [CBD-N], in assay [2] (1 μg/mL), the “fold reduction in luciferase activity, SARS-CoV-1” value is reported as “approximately 2 fold”. Moreover, the “fold decrease in luciferase activity, SARS-CoV-1” value in assay [2] (50 μg/mL) and in assay [2] (100 μg/mL) was “greater than 10 fold” in each case. Also, in assay [2], the “inhibitory effect on SARS-CoV-1 virus entry (in words)” value was “significant reduction; also recorded: significant inhibitory activity”. The IC50 in assay [2] (Severe acute respiratory syndrome coronavirus, HEK-293T, read-out: IC50, SARS-CoV-1 virus entry) was under 1 µg/mL; in assay [3], under 1 µg/mL. Besides, the “viral copy numbers in the supernatants vs mock” value in assay [4] and in assay [5] was “did not find any effect” each time. Also, the “fold inhibition of SARS-CoV-2 entry” value in assay [3] is recorded as “greater than 10 fold”. Besides, the “inhibitory effect on SARS-CoV-2 entry (in words)” value in assay [3] was “significantly inhibited; also recorded: significantly reduced”.

In the case of `C=C(C)[C@@H]1CCC(C)=C[C@H]1c1c(O)cc(CCCCC)c(C(=O)O)c1O` [CBDA, cannabidiolic acid], in assay [6], the “block of SARS-CoV-2 entry into cells (in words)” value is on record as “significantly block SARS-CoV-2 entry”.

For the compound `CCCCCc1cc(O)c(C/C=C(\C)CCC=C(C)C)c(O)c1C(=O)O` [CBGA, cannabigerolic acid], the “block of SARS-CoV-2 entry into cells (in words)” value in assay [6] is given as “significantly block SARS-CoV-2 entry”.

Take `COc1ccc2cc([C@H](C)C(=O)O)ccc2c1` [naproxen]: in assay [7], the “anti-influenza virus activity (in words)” value is “broad anti-influenza virus activity”.

The values above are taken from PMC10383849, “Novel Molecular Consortia of Cannabidiol with Nonsteroidal Anti-Inflammatory Drugs Inhibit Emerging Coronaviruses’ Entry” (Pathogens, 2023).
